From patent US20030158540A1, “METHOD FOR DECREASING CATHETER-ASSOCIATED BACTERIURIA” (priority 2002, published 2003)

Experiments:
[1] = tested on: catheter-associated urinary tract infections; settings: 30 ml in drainage bags every eight hours, cited from earlier work
[2] = tested on: bacteriuria / bag contamination; settings: cited from earlier work
[3] = tested on: bacterial contamination of the drainage bag; settings: 30 ml every eight hours; thirty-one patients; cited from earlier work
[4] = tested on: types and levels of bacteria in the drainage bag; assay: One-time instillation and drainage of irrigation solution into urinary drainage bags of long-term catheterized patients; urine cultures at 24-hour intervals; format: in vivo; settings: for mean values for categories of colony count: score 3 = >100,000, 2 = 10,000 to 100,000, 1 = <10,000; for mean number of different types of organisms identified: about 50 ml one-time dose
Description: The type of irrigation solution used constituted the independent variable. The irrigation solutions were sterile hydrogen peroxide and sterile distilled vinegar (as used herein, containing about 5 wt. % acetic acid). […] Hydrogen peroxide decomposes rapidly when exposed to light or organic matter. Vinegar is a weak acetic acid solution derived from alcohol by the action of Acetobacter. Vinegar is distilled to remove color and other impurities, yielding what is referred to as white vinegar.
The dependent variables of the investigation were the types and levels of bacteria in the drainage bag, at twenty-four hour intervals of incubation, during treatment conditions. A certified laboratory was contracted to determine the germicidal values of the solutions tested. After twenty-four hours of incubation at about 37° C. […], bacterial growth was recorded at twenty-four hour intervals. Laboratory protocol for reporting types and number of bacteria provided results by identification of the organism by species present in the specimen.
For the study, a total of fifty-seven subjects were initially identified to participate in the study: fifteen from three hospitals and forty-two from ten skilled nursing facilities. […] Patients who were febrile, acutely ill, receiving antibiotic therapy, or with symptoms of urinary tract infection were excluded based on a review of the patient's chart. Patients with other methods of urinary drainage, such as condom catheter drainage, superpubic catheterization, and intermittent urethral catheterization, were not considered. Moreover, because of the chance of cross-infection, infected and uninfected patients with indwelling urinary catheters who shared the same room or adjacent beds were not considered.
The patients were randomly assigned to three experimental groups: one group was designated a control group whose catheter drainage bags were not treated with an irrigation solution; the drainage bags of the remaining groups were treated with one of the two irrigation solutions investigated. The methods of data collection were verified prior to the commencement of the study by use of a literature review and institutional review board pre approval. All urine collection was made between 5:00 A.M. and 6:30 A.M. The urine specimens were promptly refrigerated and transported to the microbiology laboratory. Organisms and colony counts were identified by standard laboratory methods.
The research approach carried out in the study comprised four primary steps: (1) collection of urine from the catheter drainage bags for baseline cultures; (2) instillation of the irrigation solution into the drainage bags; (3) collection of urine from the drainage bags at 24-hour intervals; and (4) evaluation of the results of bacterial growth at 24-hour intervals. The initial concentration of bacteria in each drainage bag was determined prior to instillation of the irrigation solution. With regard to the patients in the groups whose drainage bags were treated with hydrogen peroxide or distilled vinegar, the drainage bags (approximate filled volume of about 50 to 150 ml) were emptied of any residual urine, after which the distal segment of the Foley catheter was clamped to avoid any possibility of reagent reflux into the patient's bladder.

[5] = tested on: urinary bag bacterial growth; settings: daily decontamination with dilute bleach (5.25%); cited from earlier work
[6] = forty-eight hours after instillation

SMILES | catheter-associated urinary tract infections ([1]; P<0.05) | bags from which bacteria continued to be isolated [1] | rate of bacteriuria ([2]; instillation of H2O2, N=238) | rate of bag contamination ([2]; peroxide group, control group 34%, P≦0.05) [%] | bacterial contamination of the drainage bag [3] | mean values for categories of colony count ([4]; 00 h (baseline)) | mean number of different types of organisms identified ([4]; 00 h (baseline, before instillation)) | mean number of different types of organisms identified ([4]; 24 h) | mean values for categories of colony count ([4]; 24 h) | mean number of different types of organisms identified ([4]; 48 h) | mean values for categories of colony count ([4]; 48 h) | mean number of different types of organisms identified ([4]; 72 h) | mean values for categories of colony count ([4]; 72 h) | colonies of bacteria compared to the control group (post hoc analysis) [4, 6] | types of organisms compared to the control group (post hoc analysis) [4, 6] | bag cultures [5] [CFU's/ml] | decrease in urinary bag bacterial growth [5] [%]
OO [Hydrogen Peroxide, Hydrogen peroxide] | significant reduction | five of thirty | no reduction | 17 | could be eliminated effectively | 6.2 | 2.6 | 2.3 | 5.6 | 2.1 | 5.3 | 1.5 | 3.8 | no statistically significant difference | no statistically significant difference | – | –
OCl [sodium hypochlorite] | – | – | – | – | – | – | – | – | – | – | – | – | – | – | – | ≤ 50 | 76.5
